Results: article PMC11475570, “Impact of Optimized Ku–DNA Binding Inhibitors on the Cellular and In Vivo DNA Damage Response” (Cancers, 2024)

What was measured:
DNA-PK = molecular target: T1, DNA-PK (Homo sapiens, UniProt P12956+P13010); test: DNA-PK kinase assay (phosphate transfer to p53 peptide); assay type: biochemical
T1 construct: made in house; Ku 70/80 from baculovirus-infected Sf9 cells
Method: The inhibitory activity of Ku-DBis on Ku-DNA binding was evaluated in vitro using Electrophoretic mobility shift assays (EMSA) with a [^32P]-labeled 30-bp duplex DNA and purified Ku 70/80. Kinase assays were performed to measure the DNA-dependent transfer of [^32P] from γ-[^32P] ATP to a synthetic p53-based peptide substrate, both as previously described. Both EMSA and DNA-PK inhibitor titration assays were performed in triplicate. Data were fit to standard binding curves using GraphPad Prism to determine IC50 values.

Ku70–Ku80 [1] = molecular target: T2, Ku70–Ku80 (Homo sapiens, UniProt P12956+P13010); test: Microscale thermophoresis (MST); assay type: binding; settings: labeled Ku 5 nM, 5% DMSO, single-site fit
T2 construct: made in house; host or cells: baculovirus-infected Sf9 cells
Method: Ku heterodimer was labeled using the Monolith NT™ Protein Labeling Kit RED-NHS (2nd generation amine reactive, NanoTemper Technologies GmbH, MO-L011, München, Germany), following the manufacturer’s protocol. Ku-DBi 3392 powder was resuspended in 100% DMSO, and the concentration was adjusted to 50 mM after UV absorbance measurement (absorbance at 417 nm with an extension coefficient equal to 15.2 mM^−1 cm^−1). The ligand stock solution was sonicated in an ultrasonic bath before preparations of the dilution series. The MST and Differential Scanning Fluorometry (DSF) assays contain 5% DMSO to fit the DMSO concentration at the highest ligand concentration (200 µM). The labeled protein (5 nM) was incubated with ligand 3392 ranging from 98 nM to 200 µM in a 12-point 1:1 dilution series. Protein–ligand solutions were incubated for 30 min at room temperature before MST measurements, which were performed in triplicate. Proteins were transferred to capillaries (Monolith NT. Automated Premium Capillary Chips), and binding was analyzed with a Monolith NT. Automated pico-RED device using MO. Control Software with nano-red excitation, LED light adjusted to 20% excitation power, and infrared laser (MST power) set to medium. The dissociation constants (KD) were determined with MO. […]

Ku70–Ku80 [2] = molecular target: T2, Ku70–Ku80; test: nanoDSF thermostability and aggregation; assay type: binding; settings: Ku 5 µM, 5 µM 3392, up to 25 µM no additional change
Method: The thermostability and aggregation propensity of Ku was assessed using a Prometheus Panta nanoDSF instrument (NanoTemper Technologies GmbH, München, Germany). High-sensitivity capillaries were filled with Ku (10 μL each, experiments in triplicate) at a concentration of 5 µM into the instrument. We titrated against ligand 3392 covering a concentration ranging from 0 to 30 µM with measurements collected at a 1 °C-per-minute scan rate from 25 to 95 °C. Thermal unfolding was assessed by the increase in intrinsic tryptophan fluorescence detected at 350 and 330 nm following excitation at 280 nm. Inflection points in the thermal denaturation curves were identified using the first derivatives of the ratio r = fluorescence (350 nm)/fluorescence (330 nm). We measured dynamic light scattering (DLS) and turbidity throughout the heating ramp using back reflection to characterize protein aggregation. We determined aggregation temperatures using turbidity variations and increases in particle sizes.

MDA-MB-436 = test: Doxorubicin combination, CCK-8; assay type: cell-based, Human; settings: BRCA1 mutant MDA-MB-436, 20 µM 3392 pre-treatment 3 h, doxorubicin 72 h
Method: Supplementary Figure S5. Decreased sensitivity to Doxorubicin mediated by Ku-DBi in MDA-436 cells. […] (B) Pre-treatment with vehicle or 20 µM 3392 and media removed after 3 h, prior 72 h doxorubicin treatment after which cell viability was determined by CCK-8. Data are presented as the mean and SEM of triplicate determinations. […]

T1 sequence (P12956 whole entry): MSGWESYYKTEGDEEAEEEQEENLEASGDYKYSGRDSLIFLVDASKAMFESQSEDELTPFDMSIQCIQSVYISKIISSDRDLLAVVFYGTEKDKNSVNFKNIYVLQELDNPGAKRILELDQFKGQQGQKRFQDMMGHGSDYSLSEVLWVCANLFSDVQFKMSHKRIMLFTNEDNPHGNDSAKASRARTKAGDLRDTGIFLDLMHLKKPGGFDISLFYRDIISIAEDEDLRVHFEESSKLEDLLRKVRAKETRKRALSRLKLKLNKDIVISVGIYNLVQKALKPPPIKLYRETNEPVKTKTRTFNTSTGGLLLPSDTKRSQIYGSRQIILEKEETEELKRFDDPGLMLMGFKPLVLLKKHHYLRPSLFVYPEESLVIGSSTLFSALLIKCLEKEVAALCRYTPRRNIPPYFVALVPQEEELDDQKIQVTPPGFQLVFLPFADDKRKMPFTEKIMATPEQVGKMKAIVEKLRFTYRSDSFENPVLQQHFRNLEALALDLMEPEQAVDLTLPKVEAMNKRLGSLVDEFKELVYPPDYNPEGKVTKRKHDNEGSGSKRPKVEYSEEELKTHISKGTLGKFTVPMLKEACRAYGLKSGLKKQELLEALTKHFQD
T1 sequence (P13010 whole entry): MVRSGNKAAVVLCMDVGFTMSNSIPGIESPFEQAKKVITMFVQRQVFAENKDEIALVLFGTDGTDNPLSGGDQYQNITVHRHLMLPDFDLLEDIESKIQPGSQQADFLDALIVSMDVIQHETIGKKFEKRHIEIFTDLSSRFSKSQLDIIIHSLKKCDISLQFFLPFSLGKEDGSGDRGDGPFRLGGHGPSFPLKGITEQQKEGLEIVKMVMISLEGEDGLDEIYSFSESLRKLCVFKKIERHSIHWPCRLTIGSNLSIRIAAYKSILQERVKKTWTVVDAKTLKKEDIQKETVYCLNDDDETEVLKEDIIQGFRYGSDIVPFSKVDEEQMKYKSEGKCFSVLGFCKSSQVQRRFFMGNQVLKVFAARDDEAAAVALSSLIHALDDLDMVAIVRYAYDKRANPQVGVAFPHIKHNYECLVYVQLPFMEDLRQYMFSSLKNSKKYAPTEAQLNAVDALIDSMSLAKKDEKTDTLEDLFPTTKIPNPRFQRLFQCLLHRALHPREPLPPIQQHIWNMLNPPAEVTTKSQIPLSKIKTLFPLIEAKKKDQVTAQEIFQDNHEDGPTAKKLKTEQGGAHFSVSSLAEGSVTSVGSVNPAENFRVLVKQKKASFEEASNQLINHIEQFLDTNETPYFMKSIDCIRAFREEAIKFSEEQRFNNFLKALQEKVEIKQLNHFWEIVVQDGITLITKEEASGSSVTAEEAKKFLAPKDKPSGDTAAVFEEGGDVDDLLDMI
T2 sequence (P12956 whole entry): as the sequence (P12956 whole entry) above
T2 sequence (P13010 whole entry): as the sequence (P13010 whole entry) above

COc1ccc(-c2ccc(/C=C3\C(=O)N(c4cccc(C(=O)O)c4)c4ccccc43)o2)cc1C(=O)Nc1cccc(OC(F)(F)F)c1 [GL-3392]
DNA-PK inhibitory activity, fold more active than fluoro-modified counterparts (3618 and 3649) (DNA-PK): ~ 2.5 fold
IC50 (DNA-PK; DNA-dependent phosphate transfer to synthetic p53 peptide, purified DNA-PK, mean and SD of triplicate): 0.77 ± 0.19 µM
Kd (Ku70–Ku80 [1]): 2.1 ± 0.3 µM
Thermal stability of Ku (Ku70–Ku80 [2]): induced a shift in thermal stability
Change in doxorubicin sensitivity (MDA-MB-436): decrease in Dox sensitivity
